According to patent US5705649A, “Protein staining compositions and methods” (Promega Corporation, priority 1995, dated 1998):

Key:
[1] = Spectral analyses of Coomassie Blue R and Promega Green 1, 2, 3; format: physicochemical
Description: The three solutions of Promega Green 1, 2, and 3, from examples 1, 2 and 3 respectively, were diluted approximately 500 fold into a 1:1 solution of methanol:water. The spectra of the resulting solutions and of a 12 μg/ml solution of Coomassie Blue R (in 1:1 methanol:water) were recorded from 700 to 340 nm versus 1:1 methanol:water. […] All of the derivatives gave essentially identical spectra; however, the maximal absorbance of the diluted Promega Green i was about twice that seen for the other derivatives. The derivatives had two peak absorptions in the region of the spectrum scanned, a major peak at around 630 nm and a second peak at around 440 nm. The following absorbances were recorded at the peaks near 630 nm for the three Promega Green dye solutions (diluted 1:500 in 1:1 methanol:water): […]

[2] = test system: bovine serum albumin (BSA); assay: Staining in polyacrylamide gels not containing SDS; settings: 50 mM Tris-HCl pH 8.0
Description: (§1) A polyacrylamide gel was made containing a 10% separating gel and a 3% stacking gel having 50 mM Tris-HCl pH 8.0 as a buffer. A sample loading solution was made containing Promega Green 1 dissolved in 50 mM Tris-HCl, pH 8.0, 20% glycerol. Samples of bovine serum albumin (BSA) and carbonic anhydrase were added to the sample buffer. The samples were loaded onto the gel and the gel was assembled into a BioRad miniprotean II gel system. An electrode buffer solution of 50 mM Tris pH 8.0 was used to fill the buffer chamber and a voltage of 150 volts was applied to the apparatus. […] Therefore, the stain need not be used only in systems containing SDS.

[3] = test system: carbonic anhydrase; assay: Staining in polyacrylamide gels not containing SDS; settings: 50 mM Tris-HCl pH 8.0
Description: as §1

[4] = test system: bovine serum albumin; assay: Quantitation of proteins separated by SDS-PAGE (dye extracted from excised bands); settings: 66 Kd
Description: (§2) The samples used were prepared with Promega Mid-Range Molecular Weight Markers solution (Promega Corp., Madison, Wis., USA, Catalog No. V5231) (referred to hereinafter as "Promega Mid-Range [Molecular Weight] Markers or Standards") diluted into Sample Buffer. Promega Mid-Range Molecular Weight Markers is a solution, at about 0.5 mg/ml, of each of the following proteins as a molecular weight standard: phosphorylase B (apparent molecular weight: 97,400 daltons ("d")), bovine serum albumin (apparent molecular weight: 66,200 d), glutamate dehydrogenase (apparent molecular weight: 55,000 d), ovalbumin (apparent molecular weight: 42,700 d), aldolase (apparent molecular weight: 40,000 d), carbonic anhydrase (apparent molecular weight: 31,000 d), soybean trypsin inhibitor (apparent molecular weight: 21,500 d), and lysozyme (apparent molecular weight: 14,400 d). […] The samples were heated to 95° C. for 10 minutes with occasional vortex treatment in 1.5 ml Eppendorf centrifuge tubes and then centrifuged in an Eppendorf centrifuge for 20 seconds to ensure that the protein in the sample was denatured and well mixed.
(§3) A 10% SDS-PAGE gel was made as described in the Example 5. Promega Mid-Range Molecular Weight Standards were diluted into loading buffer to produce solutions containing 2.0, 1.0, 0.5, and 0.25 μg of protein per band in 5 μl of solution. Duplicate 5 μl solutions of each of these solutions were loaded into 1 of the 10 sample wells in the gel after the solutions were heated at 95° C. for 10 minutes. The gel was then electrophoresed at 160 V until the running dye just eluted from the bottom of the gel. The gel was destained, and signal from stained protein enhanced, for 90 minutes in 30% methanol, 4% acetic acid.
(§4) One of the pair of duplicate bands for the 97.4, 66.2, 55.0 and 42.7 kilodalton standards from the lanes containing 2.0, 1.0, 0.5, and 0.25 μg of protein per band were excised with a razor blade as were two control gel segments from regions of the gel not containing protein. The excised segments were placed in individual 1.5 ml Eppendorf tubes containing 2% SDS and allowed to incubate at room temperature for 72 hours. After this time, the solutions were removed from the extracted segments and acetic acid was added to 2% (v/v) final concentration. The absorption of the solutions at […] was then measured.

[5] = test system: phosphorylase B; assay: as above; settings: 97 kD
Description: as §2, §3, §4

[6] = test system: ovalbumin; assay: as above; settings: 43 Kd
Description: as §2, §3, §4

[7] = test system: glutamate dehydrogenase; assay: as above; settings: 55 Kd
Description: as §2, §3, §4

[8] = test system: Promega Mid-Range Molecular Weight Markers; assay: Recovery of proteins separated by gel electrophoresis; settings: re-run 10% SDS-PAGE, 30% methanol, 4% acetic acid, 1 hour
Description: An 8% SDS-PAGE gel was prepared as described above and loaded with Promega Mid-Range Molecular Weight Markers at a concentration of 4 μg of each protein per lane. The gel was run at 160 V with 200 μl of octyl Coomassie (Promega Green 1) stock solution in the cathode buffer (125 ml).
After electrophoresis, the gel segments containing the 97, 66, 55, 43, and 40 kilodalton proteins were excised from four consecutive lanes, minced, and placed in individual 1.5 ml Eppendorf tubes containing 0.5 ml of 50 mM ammonium bicarbonate pH 7.8 containing 0.02% SDS (w/v). The tubes were then incubated at 50° C. for 14 hours.
After that time, the tubes were spun for 1 minute in a microfuge to pellet the minced acrylamide and 0.47 ml of the supernate was removed to new 1.5 ml tubes. Two of the four solutions from each of the eluted protein samples were dried in a Speed-Vac, the other pair was first ultrafiltered through a 5000 dalton cut-off Milligen centrifugal concentrator by centrifugation in a microfuge for 30 minutes. These concentrated solutions were then dried in a Speed Vac.
The dried samples were resuspended in 25 μl of 1× loading buffer and heated at 95° C. for 10 minutes. These samples were then loaded in two 15-well, 0.75 mm 10% SDS-PAGE gels made as above. The gels were then run at 160 V with 200 μl of Promega Green 1 stock solution in the cathode buffer (125 ml). […]

For `CCCCCCCC(=O)N(c1ccc(OCC)cc1)c1ccc(C(=C2C=CC(=[N+](CC)Cc3cccc(S(=O)(=O)[O-])c3)C=C2)c2ccc(N(CC)Cc3cccc(S(=O)(=O)O)c3)cc2)cc1` [Promega Green 1], the “Absorbance at the peak near 630 nm” value ([1]; diluted 1:500 in 1:1 methanol:water) was 1.66, the “maximal absorbance relative to the other derivatives” value ([1]; diluted approximately 500 fold) was “about twice” and the “staining of BSA in gel without SDS” value [2] was “seen to migrate through the gel as stained bands”. For the same molecule, the “staining of carbonic anhydrase in gel without SDS” value [3] was “seen to migrate through the gel as stained bands”, the “Absorbance at 630 nm” value ([4]; 0.25 μg/band) was “.052” and the “Absorbance at 630 nm” value ([4]; 0.50 μg/band) was “.074”. For the same molecule, the “Absorbance at 630 nm” value ([4]; 1.00 μg/band) was “.138”, the “Absorbance at 630 nm” value ([4]; 2.00 μg/band) was “.192” and the “Absorbance at 630 nm” value ([5]; 0.25 μg/band) was “.032”. The “Absorbance at 630 nm” value ([5]; 0.50 μg/band) was “.053”, the “Absorbance at 630 nm” value ([5]; 1.00 μg/band) was “.083” and the “Absorbance at 630 nm” value ([5]; 2.00 μg/band) was “.128”. The “Absorbance at 630 nm” value ([6]; 0.25 μg/band) was “.042”, the “Absorbance at 630 nm” value ([6]; 0.50 μg/band) was “.064” and the “Absorbance at 630 nm” value ([6]; 1.00 μg/band) was “.126”. For the same molecule, the “Absorbance at 630 nm” value ([6]; 2.00 μg/band) was “.195”, the “Absorbance at 630 nm” value ([7]; 0.25 μg/band) was “.053” and the “Absorbance at 630 nm” value ([7]; 0.50 μg/band) was “.063”. The “Absorbance at 630 nm” value ([7]; 1.00 μg/band) was “.105”, the “Absorbance at 630 nm” value ([7]; 2.00 μg/band) was “.138” and the “detection of recovered proteins” value [8] was “the expected protein bands could be seen in the lanes”.
